Assay: xn = mol fraction of the nth substance listed, in the solute-free solvent

CC(=O)NC(CCC(N)=O)C(=O)O (stereo unspecified) + O + CCO
solubility (g/100 g solution)
Conditions | 293.15 K | 298.15 K | 303.15 K | 308.15 K | 313.15 K | 318.15 K
x2 = 0.2647 | 0.629 | 0.869 | 0.998 | 1.29 | 1.49 | 1.75
x2 = 0.4475 | 1.45 | 1.76 | 2.23 | 2.56 | 2.78 | 3.17
x2 = 0.7641 | 3.01 | 3.62 | 4.93 | 6.04 | 7.27 | 8.61
x2 = 0.8293 | 2.93 | 3.69 | 4.49 | 5.32 | 6.47 | 7.52
x2 = 0.9284 | 3.11 | 3.48 | 4.31 | 5.04 | 6.17 | 7.23

CC(=O)NC(CCC(N)=O)C(=O)O (stereo unspecified) + O + CO
solubility (g/100 g solution)
Conditions | 293.15 K | 298.15 K | 303.15 K | 308.15 K | 313.15 K | 318.15 K
x2 = 0.1998 | 1.22 | 1.48 | 1.76 | 2.06 | 2.62 | 3.27
x2 = 0.4906 | 2.54 | 2.73 | 3.45 | 4.16 | 5.01 | 5.92
x2 = 0.6921 | 3.1 | 3.54 | 4.77 | 5.99 | 7.07 | 8.56
x2 = 0.7712 | 3.1 | 3.37 | 4.17 | 4.97 | 6.05 | 7.41
x2 = 0.8999 | 3.14 | 3.34 | 4.37 | 5.12 | 5.77 | 7.05

O=C(O)c1ccc(C(=O)O)o1 + O + COCCOC
solubility (g/100 g solution)
Conditions | 303.15 K | 308.15 K | 313.15 K | 318.15 K | 323.15 K | 328.15 K | 333.15 K | 338.15 K | 343.15 K
x2 = 0.1 | 1.42 | 1.44 | 1.5 | 1.57 | 1.65 | 1.75 | 1.83 | 1.93 | 2.05
x2 = 0.2 | 2.73 | 2.79 | 2.9 | 3.02 | 3.16 | 3.31 | 3.48 | 3.7 | 3.94
x2 = 0.3 | 3.75 | 3.9 | 4.06 | 4.22 | 4.39 | 4.58 | 4.79 | 5.05 | 5.33
x2 = 0.4 | 4.61 | 4.81 | 5.03 | 5.24 | 5.47 | 5.78 | 6.11 | 6.45 | 6.82
x2 = 0.5 | 5.53 | 5.75 | 6.03 | 6.31 | 6.69 | 7.05 | 7.45 | 7.81 | 8.16
x2 = 0.6 | 6.14 | 6.36 | 6.59 | 6.86 | 7.15 | 7.49 | 7.86 | 8.22 | 8.61
x2 = 0.7 | 5.57 | 5.8 | 6.08 | 6.35 | 6.64 | 6.93 | 7.24 | 7.62 | 8.03
x2 = 0.8 | 4.68 | 4.88 | 5.09 | 5.35 | 5.55 | 5.83 | 6.13 | 6.48 | 6.86
x2 = 0.9 | 4.41 | 4.57 | 4.74 | 4.91 | 5.11 | 5.32 | 5.55 | 5.87 | 6.22

From the CheMixHub drug solubility set
